Assay results reported in ChEMBL document CHEMBL5661943, “ASAP - In vitro antiviral effect” (2024).

Experiments:
Zika virus = experiment: Functional CPE-based assay to measure dose dependent changes in antiviral-drug inhibitory efficacy against Zika virus MR766 in Vero E6 miRFP670 cells (cotreated with P-gp inhibitor, CP100356). Cells are treated with antiviral candidates that are serially diluted. EC50 is reported via analysis of MTS assay as a readout of CPE. The assay has been performed by KU Leuven.; format: organism-based, Chlorocebus sabaeus, Vero C1008; settings: for EC90: P-gp concentration 500 nM, P-gp inhibitor CP100356
dengue virus type 2 = experiment: Functional assay to measure dose dependent changes in antiviral-drug inhibitory efficacy against Dengue virus type 2 New Guinea C in Vero E6 miRFP670 cells (cotreated with P-gp inhibitor, CP100356). Cells are treated with antiviral candidates that are serially diluted, following infection, cells are fixed. EC50 is reported via analysis of fluorescence intensity using high-content imager. The …; format: organism-based, Chlorocebus sabaeus, Vero C1008; settings: for EC90: P-gp concentration 500 nM, P-gp inhibitor CP100356

O=C(Nc1cc2c(c(C3=CCOCC3)c1)CNC2)c1cc(F)cc2[nH]ncc12
EC50 (Zika virus; Zika virus, Vero C1008): 7.33 µM
EC90 (Zika virus; Zika virus, Vero C1008, Baseline response 0 %, EC90 CI (lower) 5.793 uM, EC90 CI (upper) 20.937 uM, Hill slope 5.397, Maximum measured 131.01 %, Maximum response 100 %, Minimum measured -1.308 %, R squared 0.937): 11 µM
EC50 (dengue virus type 2; Dengue virus, Vero C1008): > 25 µM
EC90 (dengue virus type 2; Dengue virus, Vero C1008, Maximum measured 218.898 %, Minimum measured 80.524 %): > 25 µM

Cc1cnccc1-c1cc(NC(=O)c2cc(F)cc3[nH]ncc23)cc2c1CNC2
EC50 (Zika virus; Zika virus, Vero C1008): > 50 µM
EC90 (Zika virus; Zika virus, Vero C1008, Baseline response 0 %, Hill slope 2.277, Maximum measured 10.357 %, Maximum response 100 %, Minimum measured -2.491 %, R squared 0.469): > 50 µM
EC50 (dengue virus type 2; Dengue virus, Vero C1008): > 25 µM
EC90 (dengue virus type 2; Dengue virus, Vero C1008, Maximum measured 259.167 %, Minimum measured 80.59 %): > 25 µM

CCCNC(=O)[C@H](Nc1ccc2c(c1)CNC2)c1cc(Cl)cc2[nH]ncc12
EC50 (Zika virus; Zika virus, Vero C1008): 6.6 µM
EC90 (Zika virus; Zika virus, Vero C1008, Baseline response 0 %, EC90 CI (lower) 8.551 uM, EC90 CI (upper) 22.021 uM, Hill slope 3.004, Maximum measured 121.473 %, Maximum response 100 %, Minimum measured -0.697 %, R squared 0.949): 13.7 µM
EC50 (dengue virus type 2; Dengue virus, Vero C1008): > 50 µM
EC90 (dengue virus type 2; Dengue virus, Vero C1008, Maximum measured 131.319 %, Minimum measured 89.09 %): > 50 µM

Cc1cccc(-c2nc3c(C(=O)Nc4ccc5c(c4)CNC5)cc(Cl)cc3[nH]2)c1O
EC50 (Zika virus; Zika virus, Vero C1008): > 50 µM
EC90 (Zika virus; Zika virus, Vero C1008, Maximum measured 4.83 %, Minimum measured -9.413 %): > 50 µM
EC90 (Zika virus; Zika virus, Vero C1008, Baseline response 0 %, Hill slope 1.997, Maximum measured 9.723 %, Maximum response 100 %, Minimum measured -5.385 %, R squared 0.475): > 50 µM
EC50 (dengue virus type 2; Dengue virus, Vero C1008): 46.9 µM
EC90 (dengue virus type 2; Dengue virus, Vero C1008, Maximum measured 146.036 %, Minimum measured 86.561 %): > 50 µM
EC90 (dengue virus type 2; Dengue virus, Vero C1008, Baseline response 0 %, Hill slope -5.285, Maximum measured 123.385 %, Maximum response 100 %, Minimum measured 41.68 %, R squared 0.576): > 50 µM
EC50 (dengue virus type 2; vero c1008): > 50 µM

O=C(Nc1cc2c(c(C3=CCS(=O)(=O)CC3)c1)CNC2)c1cc(F)cc2[nH]ncc12
EC50 (Zika virus; Zika virus, Vero C1008): > 50 µM
EC90 (Zika virus; Zika virus, Vero C1008, Maximum measured 6.141 %, Minimum measured -2.074 %): > 50 µM
EC50 (dengue virus type 2; Dengue virus, Vero C1008): > 25 µM
EC90 (dengue virus type 2; Dengue virus, Vero C1008, Maximum measured 118.058 %, Minimum measured 98.99 %): > 25 µM

O=C(NCC(F)F)[C@H](Nc1ccc2c(c1)CNC2)c1cc(F)cc2[nH]ccc12
EC50 (Zika virus; Zika virus, Vero C1008): > 50 µM
EC90 (Zika virus; Zika virus, Vero C1008, Baseline response 0 %, Hill slope 0.152, Maximum measured 3.288 %, Maximum response 100 %, Minimum measured 0.363 %, R squared 0.104): > 50 µM
EC50 (dengue virus type 2; Dengue virus, Vero C1008): > 50 µM
EC90 (dengue virus type 2; Dengue virus, Vero C1008, Maximum measured 207.16 %, Minimum measured 119.939 %): > 50 µM

FC(F)(F)Oc1cc(Cl)cc2c(Cc3ccc(-c4nnn[nH]4)cc3)c[nH]c12
EC50 (Zika virus; Zika virus, Vero C1008): 20.6 µM
EC90 (Zika virus; Zika virus, Vero C1008, Baseline response 0 %, Hill slope 5.381, Maximum measured 73.735 %, Maximum response 100 %, Minimum measured 0.486 %, R squared 0.994): > 25 µM
EC50 (dengue virus type 2; Dengue virus, Vero C1008): 11.9 µM
EC90 (dengue virus type 2; Dengue virus, Vero C1008, Baseline response 0 %, Hill slope -33.999, Maximum measured 142.465 %, Maximum response 100 %, Minimum measured 16.781 %, R squared 0.605): > 12.5 µM

CNC(=O)[C@H](Nc1ccc2c(c1)CNC2)c1cc(Cl)cc2[nH]c(-c3ccccc3)nc12
EC90 (Zika virus; Baseline response 0 %, EC90 CI (lower) 1.657 uM, EC90 CI (upper) 9.069 uM, Hill slope 2.736, Maximum measured 134.068 %, Maximum response 100 %, Minimum measured 11.054 %, R squared 0.856): 3.88 µM
EC50 (Zika virus; Zika virus, Vero C1008): 1.54 µM
EC90 (Zika virus; Zika virus, Vero C1008, Baseline response 0 %, EC90 CI (lower) 2.457 uM, EC90 CI (upper) 4.2 uM, Hill slope 2.999, Maximum measured 107.773 %, Maximum response 100 %, Minimum measured 2.918 %, R squared 0.982): 3.21 µM
EC50 (Zika virus; vero c1008): 1.74 µM
EC50 (dengue virus type 2; Dengue virus, Vero C1008): > 25 µM
EC90 (dengue virus type 2; Dengue virus, Vero C1008, Maximum measured 190.221 %, Minimum measured 63.084 %): > 25 µM
EC90 (dengue virus type 2; Dengue virus, Vero C1008, Baseline response 0 %, Hill slope -0.424, Maximum measured 89.369 %, Maximum response 100 %, Minimum measured 51.028 %, R squared 0.334): > 25 µM

Cc1nc2c(C(=O)Nc3ccc4c(c3)CNC4)cc(Cl)cc2[nH]1
EC50 (Zika virus; Zika virus, Vero C1008): > 50 µM
EC90 (Zika virus; Zika virus, Vero C1008, Maximum measured 8.786 %, Minimum measured -9.149 %): > 50 µM
EC50 (dengue virus type 2; Dengue virus, Vero C1008): > 6.25 µM
EC90 (dengue virus type 2; Dengue virus, Vero C1008, Baseline response 0 %, Hill slope -1.031, Maximum measured 89.345 %, Maximum response 100 %, Minimum measured 48.357 %, R squared 0.44): > 6.25 µM

NCc1ccc(-c2csc3cc(C(=O)Nc4ccc5c(c4)CNC5)ccc23)cc1
EC50 (Zika virus; Zika virus, Vero C1008): > 50 µM
EC90 (Zika virus; Zika virus, Vero C1008, Maximum measured 6.518 %, Minimum measured 2.745 %): > 50 µM
EC50 (dengue virus type 2; Dengue virus, Vero C1008): > 6.25 µM
EC90 (dengue virus type 2; Dengue virus, Vero C1008, Baseline response 0 %, Hill slope -0.794, Maximum measured 120.176 %, Maximum response 100 %, Minimum measured 78.099 %, R squared 0.152): > 6.25 µM

O=C(Nc1cc(Br)c2c(c1)CNC2)c1cc(F)cc2[nH]ncc12
EC50 (Zika virus; Zika virus, Vero C1008): 1.56 µM
EC90 (Zika virus; Zika virus, Vero C1008, Baseline response 0 %, Hill slope 40.279, Maximum measured 114.894 %, Maximum response 100 %, Minimum measured 2.051 %, R squared 0.957): 1.65 µM
EC50 (dengue virus type 2; Dengue virus, Vero C1008): > 50 µM
EC90 (dengue virus type 2; Dengue virus, Vero C1008, Baseline response 0 %, Hill slope -0.743, Maximum measured 120.32 %, Maximum response 100 %, Minimum measured 52.999 %, R squared 0.166): > 50 µM

Cc1ncc(-c2cc(F)cc(C(=O)Nc3ccc4c(c3)CNC4)c2)o1
EC50 (Zika virus; Zika virus, Vero C1008): > 6.25 µM
EC90 (Zika virus; Zika virus, Vero C1008, Baseline response 0 %, Hill slope 1.881, Maximum measured 43.228 %, Maximum response 100 %, Minimum measured 5.06 %, R squared 0.9): > 6.25 µM
EC50 (dengue virus type 2; Dengue virus, Vero C1008): 16.5 µM
EC90 (dengue virus type 2; Dengue virus, Vero C1008, Baseline response 0 %, Hill slope -0.224, Maximum measured 78.762 %, Maximum response 100 %, Minimum measured 32.755 %, R squared 0.24): > 50 µM

O=C(NCC(F)F)[C@H](Nc1ccc2c(c1)CNC2)c1cc(F)cc2[nH]ncc12
EC50 (Zika virus; Zika virus, Vero C1008): 17.9 µM
EC90 (Zika virus; Zika virus, Vero C1008, Baseline response 0 %, Hill slope 1.433, Maximum measured 86.437 %, Maximum response 100 %, Minimum measured 5.781 %, R squared 0.963): > 50 µM
EC50 (dengue virus type 2; Dengue virus, Vero C1008): > 50 µM
EC90 (dengue virus type 2; Dengue virus, Vero C1008, Maximum measured 213.694 %, Minimum measured 101.734 %): > 50 µM

N#Cc1cccc(-c2nc3c(C(=O)Nc4ccc5c(c4)CNC5)cc(Cl)cc3[nH]2)c1
EC50 (Zika virus; Zika virus, Vero C1008): > 3.12 µM
EC90 (Zika virus; Zika virus, Vero C1008, Baseline response 0 %, Hill slope 0.859, Maximum measured 7.667 %, Maximum response 100 %, Minimum measured 0.919 %, R squared 0.501): > 3.12 µM
EC50 (dengue virus type 2; Dengue virus, Vero C1008): > 50 µM
EC90 (dengue virus type 2; Dengue virus, Vero C1008, Maximum measured 129.968 %, Minimum measured 100.984 %): > 50 µM

O=C(Nc1ccc2c(c1)CNC2)c1cc(F)cc2c1CCC2
EC50 (Zika virus; Zika virus, Vero C1008): 1.81 µM
EC90 (Zika virus; Zika virus, Vero C1008, Baseline response 0 %, EC90 CI (lower) 1.329 uM, EC90 CI (upper) 15.086 uM, Hill slope 2.425, Maximum measured 145.547 %, Maximum response 100 %, Minimum measured 22.113 %, R squared 0.732): 4.48 µM
EC50 (dengue virus type 2; Dengue virus, Vero C1008): > 6.25 µM
EC90 (dengue virus type 2; Dengue virus, Vero C1008, Baseline response 0 %, Hill slope -2.434, Maximum measured 106.021 %, Maximum response 100 %, Minimum measured 60.209 %, R squared 0.87): > 6.25 µM

O=C(Nc1cc2c(c(-c3c[nH]c(=O)c(F)c3)c1)CNC2)c1cc(F)cc2[nH]ncc12
EC50 (Zika virus; Zika virus, Vero C1008): > 50 µM
EC90 (Zika virus; Zika virus, Vero C1008, Baseline response 0 %, Hill slope 0.515, Maximum measured 9.878 %, Maximum response 100 %, Minimum measured 0.944 %, R squared 0.362): > 50 µM
EC50 (dengue virus type 2; Dengue virus, Vero C1008): > 25 µM
EC90 (dengue virus type 2; Dengue virus, Vero C1008, Maximum measured 138.883 %, Minimum measured 79.511 %): > 25 µM

O=C(Nc1ccc2c(c1)CNC2)c1cccc2cn[nH]c12
EC50 (Zika virus; Zika virus, Vero C1008): > 50 µM
EC90 (Zika virus; Zika virus, Vero C1008, Baseline response 0 %, Hill slope 0.311, Maximum measured 17.727 %, Maximum response 100 %, Minimum measured -4.778 %, R squared 0.076): > 50 µM
EC50 (dengue virus type 2; Dengue virus, Vero C1008): 46.1 µM
EC90 (dengue virus type 2; Dengue virus, Vero C1008, Baseline response 0 %, Hill slope -1.364, Maximum measured 96.577 %, Maximum response 100 %, Minimum measured 45.147 %, R squared 0.579): > 50 µM

N#CCc1cc(NC(=O)c2cc(F)cc3[nH]ncc23)cc2c1CNC2
EC50 (Zika virus; Zika virus, Vero C1008): 41.5 µM
EC90 (Zika virus; Zika virus, Vero C1008, Baseline response 0 %, Hill slope 1.989, Maximum measured 59.393 %, Maximum response 100 %, Minimum measured -2.191 %, R squared 0.98): > 50 µM
EC50 (dengue virus type 2; Dengue virus, Vero C1008): > 50 µM
EC90 (dengue virus type 2; Dengue virus, Vero C1008, Maximum measured 146.108 %, Minimum measured 103.208 %): > 50 µM
